Results as given in patent US20110305748A1 (priority 2010, published 2011).

Test system: influenza
Design: species or system mice
Conditions: mouse, in vivo

Substance: GLA
- Th1 T cell responses (antigen-specific IgG2a titers and IFNγ production): dramatic increase in antigen-specific IgG2a titers and IFNγ production
